Holding throughout (type): cell-based, human
For data set [1], the system named is SKOV3 cells. Briefly: Cell mortality, viability, growth and cell cycle of SKOV3 cells (morphology, trypan blue exclusion, FACS of DNA content). Here is the method: (§1) Exponentially growing cells were exposed to CDDP for 2 hours at 37° C., in serum free medium. After exposure to the drug, the cell layers were rinsed and incubated in complete growth medium.
(§2) The siRNA duplexes were transfected according to the recommended procedure by using the Oligofectamine Reagent and Opti-MEM medium (INVITROGEN LIFE TECHNOLOGIES). 30-40% confluent cells were transfected in 25 cm^2 flasks with different concentrations of siXL1, siRNA Mcl-1 or siRNA control and incubated at 37° C., 5% CO2 for 4 hours. Next, 20% fetal bovin serum was added to reach a final concentration of 10% foetal bovin serum in the 25 cm^2 flask.
(§3) After treatment, detached cells were collected separately and adherent cells were dissociated by trypsin/EDTA. Adherent and detached cells were then pooled and centrifuged at 1500×g for 5 min before being fixed in 70% ethanol. The cells were then collected on a polylysine-coated glass slide by cytocentrifugation, before a 30 min room temperature incubation in a 1 μg/ml DAPI aqueous solution (BOEHRINGER MANNHEIM). Slides were thereafter extensively washed in distilled water and mounted in Mowiol (CALBIO-CHEM).
After treatment, detached cells were collected separately. Adherent cells were then harvested by trypsin/EDTA dissociation. Adherent and detached cells were then pooled and washed in PBS before being fixed in 70% ethanol and stored at −20° C. until analysis. Before flow cytometry analysis, the cells were washed in PBS and incubated for 30 min at room temperature in PBS in order to allow the release of low molecular weight (m.w.) DNA, characteristic of apoptotic cells. After a centrifugation at 4000 g for 10 min, the cell pellets were resuspended and stained with propidium iodide (PI) using the DNA Prep Coulter Reagent Kit (BECKMAN-COULTER) at a final concentration of 10^6 cells/ml.
Samples were analyzed using an EPICS XL flow cytometer (BECKMAN COULTER) equipped with an argon laser at 15 mW. PI-stained cells were analyzed using a 488 mn excitation. A 620 nm band pass filter was put on the red fluorescence of PI. Computerized gating was applied on the side and forward scatter to exclude very small debris and on pulse width and integral peak of red fluorescence to eliminate aggregates. All samples were analyzed at a flow rate lower than 100 events per second and with a sheath pressure of 30 psi.

In data set [2] the test system is SKOV3 cells. The experiment in a line: Apoptosis induction in SKOV3 cells (cell and nuclear morphology after DAPI, caspase 3 activation and PARP cleavage by Western blot). Here is the method:
as §1, §2
Cells were rinsed with ice cold PBS and lysed in 150 mM NaCl, 50 mM Tris-HCl pH 8, 1% Triton X100, 4 mM PMSF, 2 mM Aprotinin, 5 mM EDTA, 10 mM NaF, 10 mM NaPPi, 1 mM Na3VO4 for 30 min on ice. Lysates were clarified by centrifugation at 10000 g for 10 min at 4° C. and protein concentrations were determined using the Bradford assay (BIO-RAD). Equal amounts of total cellular protein (20 μg) were resolved in a Bis-tris-HCL buffered (pH 6.4) 4-12% polyacrylamide gel (NuPAGE® Novex® 4-12% Bis-tris gel, INVITROGEN) for 35 min at 200V and electrophoretically transferred on a PVDF membrane (MILLIPORE) for 75 min at 30V. The membrane was blocked for 1 hour at room temperature in T-TBS (132 mM NaCl, 20 mM Tris-HCl pH 7.6, 0.05% Tween 20) supplemented with 5% non-fat dry milk. The membrane was incubated for 1 hour at room temperature in T-TBS-milk with the following primary antibodies: anti-Bcl-XL/S (1:500, S18 SANTA-CRUZ BIOTECHNOLOGY), anti-PARP (1:1000, CELL-SIGNALING TECHNOLOGY), anti-caspase-3 (1:1000, BD BIOSCIENCES PHARMINGEN) anti-cleaved caspase-3 (1:1000, CELL-SIGNALING TECHNOLOGY), anti-alpha-tubulin (1:3000, SIGMA) and anti-Mcl-1 (1:750, S19 SANTA-CRUZ BIOTECHNOLOGY). After three washes with T-TBS, the membrane was incubated for 1 h at room temperature in T-TBS-milk with the adequate peroxidase conjugated secondary antibody (Anti-rabbit IgG, CELL-SIGNALING TECHNOLOGY, and anti-mouse IgG, AMERSHAM). After 3 washes with T-TBS and one with TBS, the immunoreactivity was detected by enhanced chemiluminescence (ECL kit, AMERSHAM).
as §3
Background: Immunoblotting shows a protein as a band on a membrane.

The subject of data set [3] is Mcl-1 protein. Briefly: Western blot of Mcl-1 protein expression in SKOV3 cells. To be noted: FIG. 11B. Here is the method: as §2
Cells were rinsed with ice cold PBS and lysed in 150 mM NaCl, 50 mM Tris-HCl pH 8, 1% Triton X100, 4 mM PMSF, 2 mM Aprotinin, 5 mM EDTA, 10 mM NaF, 10 mM NaPPi, 1 mM Na3VO4 for 30 min on ice. Lysates were clarified by centrifugation at 10000 g for 10 min at 4° C. and protein concentrations were determined using the Bradford assay (BIO-RAD). Equal amounts of total cellular protein (20 μg) were resolved in a Bis-tris-HCL buffered (pH 6.4) 4-12% polyacrylamide gel (NuPAGE® Novex® 4-12% Bis-tris gel, INVITROGEN) for 35 min at 200V and electrophoretically transferred on a PVDF membrane (MILLIPORE) for 75 min at 30V. The membrane was blocked for 1 hour at room temperature in T-TBS (132 mM NaCl, 20 mM Tris-HCl pH 7.6, 0.05% Tween 20) supplemented with 5% non-fat dry milk. […] After 3 washes with T-TBS and one with TBS, the immunoreactivity was detected by enhanced chemiluminescence (ECL kit, AMERSHAM).

Turning to “siXL1: double-stranded siRNA blocking Bcl-XL expression; sense 5′-auuggugagucggaucgcatt-3′ (SEQ ID NO: 5), anti-sense 5′-ugcgauccgacucaccaautt-3′ (SEQ ID NO: 6) (sense AUUGGUGAGUCGGAUCGCATT; antisense UGCGAUCCGACUCACCAAUTT; chemistry not given here)”, the “cytotoxic effect on SKOV3 cells” value in data set [1] (50 nM each siRNA, absence of cisplatin, FIG. 12) is given as “no cytotoxic effect”. For the same substance, the “cytotoxic effect of each siRNA” value in data set [1] (SKOV3 cells, FIGS. 13 and 14) was “slight cytoxic effect”. The “cell viability (trypan blue exclusion)” value in data set [1] (SKOV3 cells, alone 150 nM or in combination 75 nM each, FIGS. 13 and 14) is reported as “reduction of cell viability”. Moreover, the “cell death (morphology, FACS analysis of the cell cycle)” value in data set [1] (SKOV3 cells, cisplatin 5 or 20 μg/ml, siRNA 150 nM) is listed as “moderate cell death by apoptosis”. Moreover, the “caspase 3 activation and PARP cleavage after 24 h exposure to cisplatin” value in data set [2] (24 h, combination with 20 μg/ml cisplatin) is on record as “detectable”. Further, the “apoptosis induction (cellular and nuclear morphology, caspase 3 cleavage)” value in data set [2] (72 h after transfection, FIG. 5) is listed as “moderate apoptosis”. Besides, in data set [2] (alone 150 nM or in combination 75 nM each, FIGS. 13 and 14), the “apoptosis / cell death (nuclear fragmentation and condensation, morphology, pre-G1 peak)” value is on record as “moderate apoptosis”. Moreover, in data set [3], the “dose dependence of extinction of Mcl-1 protein expression” value is listed as “dose-dependent”.
